Measured values from patent US4772616A, “Treatment of ocular hypertension and glaucoma with dopamine antagonists” (priority 1987, dated 1988).
Entries after “also recorded” stand apart in the source; their conditions may differ. Read-outs that look alike come from different tables or passages of the source.

Columns and labels:
[1] = test system: intraocular pressure (IOP); assay: Intraocular pressure (IOP) recovery model in rabbits after hypertonic saline (20% NaCl) infusion; assay type: in vivo, Albino rabbits; conditions: for potency in lowering intraocular pressure compared with timolol: FIGS. 1-5; for potency in lowering intraocular pressure compared with pilocarpine and timolol: in vivo
Protocol: Albino rabbits of either sex, weighing 2.25-2.5 kg were used for this intraocular pressure (IOP) recovery model experiment. Hypertonic saline (20% NaCl) was infused into the ear vein at a rate of 1 ml/min. for 10 minutes. The IOP was determined with Mackay-Marg electronic applanation tonometer (Berkeley Bio-Engineering, San Leandro, Calif.) at 0, 5, 10, 15, 20, 40, 60, 80, and every 30 minutes thereafter. The IOP decreased abruptly right after the infusion of hypertonic saline and recovered to normal in approximately 80-110 minutes. Identical experiments were repeated with the same group of animals one week later, wherein addition to the hypertonic saline infusion, haloperidol was instilled into the eyes in the form of 50 μl of an aqueous solution of 0.125 wt % haloperidol.
The procedure performed in Example 1 was carried out in the same manner, except that an aqueous solution of 0.25 wt % haloperidol was employed.
The procedure performed in Example 1 was carried out in the same manner, except that an aqueous solution of 0.25 wt % moperone was used.
The procedure performed in Example 1 was carried out in the same manner, except that an aqueous solution of 0.25 wt % trifluperidol was used.
The procedure performed in Example 1 was carried out in the same manner, except that an aqueous solution of 0.25 wt % L-timolol was used.
The procedure performed in Example 1 was carried out in the same manner, except that an aqueous solution of 0.25 wt % clofluperol was used.
The procedure performed in Example 1 was carried out in the same manner, except that an aqueous solution of 0.25 wt % floropipamide was used.
The procedure performed in Example 1 was carried out in the same manner, except that an aqueous solution of 0.25 wt % lenperone was used.
The procedure performed in Example 1 was carried out in the same manner with the following exceptions: (a) an Alcon electronic applanation tonometer (Alcon Laboratories, Inc., Ft. Worth, Tex.) was used to determine IOP; and (b) an aqueous solution of 0.25 wt % trifluoperazine was used.
The procedure performed in Example 10 was carried out in the same manner, except that an aqueous solution of 0.25 wt % chlorpromazine was used.
The procedure performed in Example 10 was carried out in the same manner, except that an aqueous solution of 0.5 wt % domperidone was used.

[2] = test system: aqueous humor formation and intraocular pressure; assay: Studies of ability to reduce aqueous humor formation and intraocular pressure in rabbits and cats; conditions: rabbit, in vivo
Excerpt: The dopamine antagonists of the present invention have been studied with respect to their ability to reduce aqueous humor formation and intraocular pressure in rabbits and cats. The studies indicate that the compounds are effective in reducing aqueous humor formation and intraocular pressure subsequent to topical and intracameral application.

[3] = background; cited from earlier work
[4] = background; cited from earlier work; remark: listed apart in the source
intraocular pressure = conditions: cited from earlier work
[5] = Systemic absorption after topical instillation to the eye; assay type: in vivo; conditions: assuming not more than 10% of topically instilled drug absorbed systemically
[6] = test system: aqueous humor (AH) dynamics; assay: Cat eye model, aqueous humor (AH) dynamics (rates of AH formation and outflow, blue dextran); assay type: in vivo, cats; conditions: 50 μl of 0.5% eye drops
Protocol: The cat eye model was used for the study of haloperidol actions in aqueous humor (AH) dynamics. Briefly, cats of either sex weighing 2.5-4.0 kg were anesthetized with 30 mg/kg of pentobarbital sodium. Systemic blood pressure was monitored through cannulation at the femoral artery and additional pentobarbital was injected via femoral vein. Three needles were put into each eye. The first one was placed in the anterior chamber for the monitoring of IOP. The second one was placed at the posterior chamber for the infusion of AH-like solution containing 0.01% of blue dextran (NaCl, 137; KCl, 4.7; CaCl2, 1.53; MgCl2, 0.67; Na2 HPO4, 0.11 and dextrose, 5.56 mM). The rate of the infusion was adjusted to 38 μl/min. The third one was placed in the anterior chamber to serve as an overflow outlet. The overflown solution passed through a microspectrophotometric cell (ISCO, UA-5, Lincoln, Nebr.) for the detection of changes of blue dextran concentration and through a drop counter (ISCO, Model 328) for the recording of overflow rate.
Haloperidol (50 μl of 0.5% eye drops) was instilled to the eyes when the blue dextran tracings were stabilized (in about 2 hrs. after the initiation of the infusion). The rates of AH formation (rf) and outflow (ro) were calculated as follows: […]

[7] = Oryctolagus cuniculus, topical, read-out: Difference in Max Reduction of IOP
[8] = rabbit, 0.25% drug, Alcon electronic applanation tonometer
[9] = rabbit, 0.25 wt % aqueous solution, Alcon tonometer
[10] = Oryctolagus cuniculus, topical, rabbit, 0.25% drug, Mackay-Marg tonometer, 100% control IOP 20.2 ± 1.3 mm Hg, 20% saline alone 65 ± 1, read-out: Difference in Max Reduction of IOP
[11] = rabbit, 0.25% drug, Mackay-Marg tonometer, 50 μl eye instillation
[12] = rabbit, 0.25 wt % aqueous solution
[13] = rabbit, 0.25 wt % aqueous solution, Mackay-Marg tonometer
[14] = rabbit, 0.125% drug, Mackay-Marg tonometer, 50 μl eye instillation

Q: Which response vs control in vivo at 0.25 % [1, 7] does the source give for `CN(C)CCCN1c2ccccc2Sc2ccc(Cl)cc21` [Chlorpromazine] here?
A: The response vs control in vivo at 0.25 % was 52 ± 3%.

Q: What about the “Time Delay for IOP Recovery Relative to Control” value [1, 8] of the same molecule?
A: Its value is 120 min.

Q: And the “shift of the IOP recovery curve relative to the control curve” value [1, 9]?
A: Its value is “indicates the ocular hypotensive action”.

Q: Which “potency in lowering intraocular pressure compared with timolol” value [1] does the source give for `O=C(CCCN1CCC(C(=O)c2ccc(F)cc2)CC1)c1ccc(F)cc1` [Lenperone] here?
A: Its value is “at least equipotent to timolol”.

Q: And the response vs control in vivo at 0.25 % [1, 10]?
A: Its response vs control in vivo at 0.25 % is 61 ± 2%.

Q: And the “Time Delay for IOP Recovery Relative to Control” value [1, 11]?
A: The value was 60 min.

Q: What about the “IOP recovery compared with L-timolol” value [1, 12] of the same molecule?
A: Its value is “generally equivalent to that of L-timolol”.

Q: And the “reduction of aqueous humor formation and intraocular pressure” value (from here on “reduction”) [2]?
A: The value was “reduce significantly”.

Q: Which results are given for `O=c1[nH]c2ccccc2n1CCCN1CCC(n2c(=O)[nH]c3cc(Cl)ccc32)CC1` [Domperidone]?
A: response vs control in vivo at 0.5 % [1, 7]: 56 ± 4%; Time Delay for IOP Recovery Relative to Control ([1]; rabbit, 0.5% drug, Alcon electronic applanation tonometer): 210 min; shift of the IOP recovery curve relative to the control curve ([1]; rabbit, 0.5 wt % aqueous solution, Alcon tonometer): indicates the ocular hypotensive action

Q: With `CC(C)(C)NC[C@H](O)COc1nsnc1N1CCOCC1` [Timolol, 1-tert-butyl-amino-3-[(4-morpholino-1,2,5-thiadiazol-3-yl)oxy]-2-propanol] as the molecule, how does the response vs control in vivo at 0.25 % [1, 10] read?
A: The response vs control in vivo at 0.25 % was 62 ± 4%.

Q: And the “Time Delay for IOP Recovery Relative to Control” value [1, 11]?
A: Its value is 60 min.

Q: And the local anesthetic action [3]?
A: Its local anesthetic action is “lack of local anesthetic action”.

Q: What about the tolerance [3] of the same molecule?
A: The tolerance was “minimal tolerance”.

Q: What about the “systemic absorption after topical administration to the eye” value [4] of the same molecule?
A: Its value is “a small portion is absorbed into the systemic circulation”.

Q: What does the source list for `Cc1ccc(C2(O)CCN(CCCC(=O)c3ccc(F)cc3)CC2)cc1` [Moperone]?
A: potency in lowering intraocular pressure compared with timolol [1]: more potency than timolol; response vs control in vivo at 0.25 % [1, 10]: 55 ± 1%; Time Delay for IOP Recovery Relative to Control [1, 11]: 180 min; shift of the IOP recovery curve relative to the control curve [1, 13]: indicates the ocular hypotensive action; potency in lowering intraocular pressure compared with pilocarpine and timolol ([1]; rabbit): more potent than pilocarpine and timolol; reduction of aqueous humor formation and intraocular pressure [2]: reduce significantly

Q: For `CC[C@@H]1C(=O)OC[C@@H]1Cc1cncn1C` [pilocarpine], which “mechanism: effect on aqueous humor outflow and formation” value (intraocular pressure; comparison with haloperidol) is on record?
A: Its value is “increases aqueous humor outflow without affecting aqueous humor formation”.

Q: For `CN1CCN(CCCN2c3ccccc3Sc3ccc(C(F)(F)F)cc32)CC1` [Trifluoperazine], which response vs control in vivo at 0.25 % ([1]; Oryctolagus cuniculus, topical, rabbit, 0.25% drug, Alcon tonometer, 100% control IOP 20.2 ± 1.3 mm Hg, 20% saline alone 65 ± 1, read-out: Difference in Max Reduction of IOP) is on record?
A: The response vs control in vivo at 0.25 % was 49 ± 4%.

Q: And the “Time Delay for IOP Recovery Relative to Control” value [1, 8]?
A: Its value is 150 min.

Q: What about the “shift of the IOP recovery curve relative to the control curve” value [1, 9] of the same molecule?
A: Its value is “indicates the ocular hypotensive action”.

Q: Which results are given for `NC(=O)C1(N2CCCCC2)CCN(CCCC(=O)c2ccc(F)cc2)CC1` [Floropipamide]?
A: potency in lowering intraocular pressure compared with timolol [1]: at least equipotent to timolol; response vs control in vivo at 0.25 % [1, 10]: 60 ± 3%; Time Delay for IOP Recovery Relative to Control [1, 11]: 60 min; IOP recovery compared with L-timolol [1, 12]: generally equivalent to that of L-timolol; reduction of aqueous humor formation and intraocular pressure [2]: reduce significantly

Q: For `CC(C)(C)NC[C@@H](O)COc1nsnc1N1CCOCC1` [D-timolol], which “intraocular pressure reducing response compared with S isomer” value (intraocular pressure; U.S. Pat. No. 4,521,414) is on record?
A: Its value is “substantially equivalent to that of the S isomer”.

Q: For `O=C(CCCN1CCC(O)(c2ccc(Cl)cc2)CC1)c1ccc(F)cc1` [Haloperidol, 4-[4-(p-chlorophenyl)-4-hydroxypiperidino]-4'-fluorobutyrophenone], which “potency in lowering intraocular pressure compared with timolol” value [1] is on record?
A: Its value is “more potency than timolol”.

Q: What about the response vs control in vivo at 0.125 % [1, 7] of the same molecule?
A: Its response vs control in vivo at 0.125 % is 45 ± 2%.

Q: What about the response vs control in vivo at 0.25 % [1, 7] of the same molecule?
A: Its response vs control in vivo at 0.25 % is 46 ± 2%.

Q: And the “Time Delay for IOP Recovery Relative to Control” value [1, 14]?
A: The value was 180 min.

Q: What about the “shift of the IOP recovery curve relative to the control curve” value ([1]; rabbit, 0.125 wt % aqueous solution) of the same molecule?
A: Its value is “indicates the ocular hypotensive action”.

Q: What about the “Time Delay for IOP Recovery Relative to Control” value [1, 11] of the same molecule?
A: The value was 270 min.

Q: What about the “shift of the IOP recovery curve relative to the control curve” value [1, 13] of the same molecule?
A: The value was “indicates the ocular hypotensive action”.

Q: What about the “potency in lowering intraocular pressure compared with pilocarpine and timolol” value ([1]; rabbit) of the same molecule?
A: Its value is “more potent than pilocarpine and timolol”.

Q: What about the “anti-psychotic dosage level potentially absorbed as a result of glaucoma therapy” value [5] of the same molecule?
A: Its value is 0.2% to 0.65.

Q: And the AH formation ([6]; following the initial outflow increase)?
A: Its AH formation is “decrease in aqueous humor formation; also recorded: decrease in AH formation”.

Q: And the AH outflow ([6]; initial effect)?
A: The AH outflow was “initial increase in aqueous humor outflow; also recorded: initially caused an increase in AH outflow”.

Q: What about the “reduction” value [2] of the same molecule?
A: Its value is “reduce significantly”.

Q: For `O=C(CCCN1CCC(O)(c2ccc(Cl)c(C(F)(F)F)c2)CC1)c1ccc(F)cc1` [Clofluperol], which “potency in lowering intraocular pressure compared with timolol” value [1] is on record?
A: The value was “at least equipotent to timolol”.

Q: And the response vs control in vivo at 0.125 % [1, 7]?
A: The response vs control in vivo at 0.125 % was 59 ± 2%.

Q: What about the “Time Delay for IOP Recovery Relative to Control” value [1, 14] of the same molecule?
A: The value was 60 min.

Q: What about the “IOP recovery compared with L-timolol” value [1, 12] of the same molecule?
A: The value was “generally equivalent to that of L-timolol”.

Q: And the “reduction” value [2]?
A: The value was “reduce significantly”.
